# According to ChEMBL document CHEMBL1201862, “PubChem BioAssay data set” (2004):
# Activity calls are given as the source filed them.
# Columns and labels:
# [1] = biological target: 5-hydroxytryptamine receptor 2A (Mus musculus, UniProt P35363); type: functional, cell-based;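 note: CHO-K1 cells with tagged receptor and beta-arrestin; agonist potency measured as compound-induced activation of the receptor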
# Mu-type opioid receptor = Mu-type opioid receptor (Homo sapiens, UniProt P35372); type: functional, cell-based;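 note: U2OS cells with beta-arrestin recruitment to OPRM1 by beta-gal complementation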
# Albumin = Albumin (Bos taurus, UniProt P02769); assay: Counterscreen for inhibitors of T-cell receptor (TCR)-CD3 interaction: Fluorescence-based biochemical high throughput dose response assay to identify inhibitors of T-cell receptor (TCR)-CD3 interaction using a TAMRA-labeled BSA probe.; type: functional
# [2] = system: Streptococcus sp. 'group A'; assay: Streptococcus pyogenes SK(-)GAS viability under kanamycin – luminescence, BacTiterGlo, confirmation, counter-screen for streptokinase expression inhibitor project, dose response (AID 1900); type: functional, organism-based
# Streptococcus = assay: GAS UMAA2166 growth inhibition – luminescence, BacTiterGlo, counter-screen for streptokinase expression inhibitor project, dose response (AID 1915); type: functional, organism-based;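 note: potency for reduction of bacterial viability or growth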
# Vero = assay: cells; type: functional; details: Chlorocebus sabaeus
# Galanin receptor type 3 = biological target: T1, Galanin receptor type 3 (Homo sapiens, UniProt O60755); assay: Fluorescence-based cell-based primary high throughput dose response assay to identify antagonists of the Galanin Receptor 3 (GalR3).; type: functional
# T1 sequence (O60755 whole entry): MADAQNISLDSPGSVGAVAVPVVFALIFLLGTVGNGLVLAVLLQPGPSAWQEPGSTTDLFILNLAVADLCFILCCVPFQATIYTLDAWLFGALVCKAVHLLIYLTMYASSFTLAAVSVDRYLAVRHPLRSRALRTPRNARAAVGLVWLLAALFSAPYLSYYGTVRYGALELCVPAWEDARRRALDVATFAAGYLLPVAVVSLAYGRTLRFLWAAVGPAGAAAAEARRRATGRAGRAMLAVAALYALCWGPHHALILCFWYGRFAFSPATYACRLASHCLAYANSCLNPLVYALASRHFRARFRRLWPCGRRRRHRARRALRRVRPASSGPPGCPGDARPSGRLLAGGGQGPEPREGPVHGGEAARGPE
# cells [3] = type: functional, cell-based; details: HEK-CNG
# cells [4] = assay: cells
# Major prion protein = Major prion protein (Homo sapiens, UniProt P04156); type: functional, cell-based
# [5] = off-target signal loss in HeLa-CEM21 co-culture – HeLa F-luc CTL cells, cherry-picked, counter-screen for HIV-1 Env fusion inhibitor project, dose response (AID 652040); type: functional, cell-based;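 note: potency for signal decrease marking cytotoxic or nonspecific inhibition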
# [6] = blockers of HIV-1 ZM109 envelope-driven cell-cell fusion – HeLa effector, CEM target cells, luciferase, cherry-pick, dose response (AID 652058); type: functional, cell-based;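 note: luciferase signal from HIV-1 Env mediated cell-cell fusion of effector and target cells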
# [7] = blockers of HIV-1 envelope-mediated cell-cell fusion – cherry-pick, dose response (AID 652057); type: functional, cell-based
# [8] = viability loss in CEM21 cells – cell-based, CellTiter-Glo luminescence, cherry-picked, cytotoxicity control for viral fusion inhibitor project, dose response (AID 652042); type: functional;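 note: potency for signal decrease meaning cytotoxicity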
# [9] = HIV-1 AD8 envelope cell-cell fusion blockers – cherry-pick, dose response (AID 652062); type: functional, cell-based;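 note: luciferase signal from cell-cell fusion driven by HIV-1 clade B AD8 Env; potency is for inhibitors of fusion seen as a drop in luminescence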
# Fatty acid synthase [10] = biological target: T2, Fatty acid synthase (Homo sapiens, UniProt P49327); assay: inhibition of human FAS-TE enzyme activity – biochemical, kinetic fluorescence intensity, dose response (AID 624326); type: functional;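 note: rate of fluorescence rise from hydrolysis of a fluorogenic O-methyl fluorescein ester substrate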
# [11] = biological target: T3, Sentrin-specific protease 8 (Homo sapiens, UniProt Q96LD8); type: functional
# T3 sequence (Q96LD8 whole entry): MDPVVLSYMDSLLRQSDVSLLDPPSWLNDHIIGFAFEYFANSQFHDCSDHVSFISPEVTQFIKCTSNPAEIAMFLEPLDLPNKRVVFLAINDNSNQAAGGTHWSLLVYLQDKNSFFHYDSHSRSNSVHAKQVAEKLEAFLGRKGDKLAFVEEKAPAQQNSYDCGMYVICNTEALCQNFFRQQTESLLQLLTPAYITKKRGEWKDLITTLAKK
# [12] = biological target: T4, Corticotropin-releasing factor receptor 2/Corticotropin-releasing factor-binding protein (Homo sapiens, UniProt P24387+Q13324); assay: Dose Response confirmation of uHTS hits for small molecule antagonists of the CRF-binding protein and CRF-R2 receptor complex.; type: functional; details: read-out: IC50_Mean
# T4 sequence (Q13324 whole entry): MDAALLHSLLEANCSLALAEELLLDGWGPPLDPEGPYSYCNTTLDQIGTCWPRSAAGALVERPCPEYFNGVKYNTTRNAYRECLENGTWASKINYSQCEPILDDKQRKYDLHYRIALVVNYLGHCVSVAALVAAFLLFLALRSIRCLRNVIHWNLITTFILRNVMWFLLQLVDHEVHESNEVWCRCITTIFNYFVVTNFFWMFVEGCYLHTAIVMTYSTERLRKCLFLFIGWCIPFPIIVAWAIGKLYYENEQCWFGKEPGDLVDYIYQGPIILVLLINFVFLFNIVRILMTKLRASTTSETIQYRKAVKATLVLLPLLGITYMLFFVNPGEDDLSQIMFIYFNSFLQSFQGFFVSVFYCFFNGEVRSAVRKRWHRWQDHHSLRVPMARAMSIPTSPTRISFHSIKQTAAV
# T4 sequence (P24387 whole entry): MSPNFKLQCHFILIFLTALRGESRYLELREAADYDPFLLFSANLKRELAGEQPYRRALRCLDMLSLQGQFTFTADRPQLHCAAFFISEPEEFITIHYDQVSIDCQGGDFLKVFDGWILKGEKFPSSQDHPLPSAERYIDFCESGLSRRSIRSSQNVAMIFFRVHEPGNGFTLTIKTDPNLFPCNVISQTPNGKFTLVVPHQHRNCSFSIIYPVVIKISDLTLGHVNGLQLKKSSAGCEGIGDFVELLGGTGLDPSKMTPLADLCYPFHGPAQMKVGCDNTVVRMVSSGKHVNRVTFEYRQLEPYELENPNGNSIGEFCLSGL
# [13] = biological target: T4, Corticotropin-releasing factor receptor 2/Corticotropin-releasing factor-binding protein; assay: activators of CRF receptor 2 with binding protein – uHTS hits, confirmation (AID 602473); type: functional; details: read-out: EC50_Mean
# [14] = biological target: T5, Carboxy-terminal domain RNA polymerase II polypeptide A small phosphatase 1 (Homo sapiens, UniProt Q9GZU7); assay: CTDSP1 inhibitors, concentration-response, biochemical, absorbance readout, ultra-high-throughput screen actives (AID 540297); type: functional
# T5 sequence (Q9GZU7 whole entry): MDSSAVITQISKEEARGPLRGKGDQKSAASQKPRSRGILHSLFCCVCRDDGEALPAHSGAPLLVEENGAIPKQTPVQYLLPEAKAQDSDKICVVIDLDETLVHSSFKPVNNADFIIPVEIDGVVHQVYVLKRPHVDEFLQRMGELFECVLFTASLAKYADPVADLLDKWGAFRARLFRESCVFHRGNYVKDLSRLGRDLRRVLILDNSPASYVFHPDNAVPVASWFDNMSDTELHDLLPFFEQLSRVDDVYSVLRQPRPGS
# [15] = biological target: T3, Sentrin-specific protease 8; type: functional; remark: listed apart in the source
# Fatty acid synthase [16] = biological target: T2, Fatty acid synthase; assay: inhibition of human FAS-TE enzyme activity – biochemical, endpoint fluorescence intensity, uHTS hits, dose response (AID 624327); type: functional;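 note: fluorescence from hydrolysis of an O-methyl fluorescein acyl ester substrate by the enzyme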
# Aminopeptidase N = biological target: T6, Aminopeptidase N (Plasmodium falciparum FcB1/Columbia, UniProt O96935); assay: malaria alanyl aminopeptidase activity blockers – biochemical, fluorogenic H-Leu-NHMec substrate, 1536-well (AID 1445); set-up: species or system Plasmodium falciparum 3D7, 3D7
# T6 sequence (O96935 whole entry): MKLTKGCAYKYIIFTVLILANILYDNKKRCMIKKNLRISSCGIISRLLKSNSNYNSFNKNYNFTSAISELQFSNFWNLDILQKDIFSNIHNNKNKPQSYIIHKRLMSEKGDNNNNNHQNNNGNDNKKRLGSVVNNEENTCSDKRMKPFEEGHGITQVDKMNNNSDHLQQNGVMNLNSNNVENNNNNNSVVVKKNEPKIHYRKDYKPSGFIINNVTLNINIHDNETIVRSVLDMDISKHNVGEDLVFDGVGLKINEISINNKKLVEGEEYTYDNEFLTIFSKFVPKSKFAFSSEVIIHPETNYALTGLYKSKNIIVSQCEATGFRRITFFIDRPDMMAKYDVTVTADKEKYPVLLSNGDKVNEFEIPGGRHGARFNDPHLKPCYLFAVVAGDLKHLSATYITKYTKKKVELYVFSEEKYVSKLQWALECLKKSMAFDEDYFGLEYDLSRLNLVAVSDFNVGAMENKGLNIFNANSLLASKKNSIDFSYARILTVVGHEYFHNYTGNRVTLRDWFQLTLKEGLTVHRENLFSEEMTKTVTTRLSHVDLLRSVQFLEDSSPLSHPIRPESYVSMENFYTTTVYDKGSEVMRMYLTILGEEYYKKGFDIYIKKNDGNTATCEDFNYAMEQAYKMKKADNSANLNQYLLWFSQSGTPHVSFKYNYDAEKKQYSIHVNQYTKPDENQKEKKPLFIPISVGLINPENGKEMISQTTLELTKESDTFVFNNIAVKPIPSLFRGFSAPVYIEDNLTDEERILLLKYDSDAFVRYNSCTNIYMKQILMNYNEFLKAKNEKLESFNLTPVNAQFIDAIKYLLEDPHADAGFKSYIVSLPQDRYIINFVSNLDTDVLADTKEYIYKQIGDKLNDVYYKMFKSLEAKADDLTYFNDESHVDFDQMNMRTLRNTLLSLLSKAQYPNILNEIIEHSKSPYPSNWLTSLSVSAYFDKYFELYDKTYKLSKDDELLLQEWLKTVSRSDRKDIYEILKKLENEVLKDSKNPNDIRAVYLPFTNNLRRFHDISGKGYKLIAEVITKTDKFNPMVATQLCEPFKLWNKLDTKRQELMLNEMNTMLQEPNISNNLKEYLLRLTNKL
# [17] = biological target: T7, RNA-binding protein pos-1 (Caenorhabditis elegans, UniProt G5EF15); assay: disruptors of C. elegans POS-1 RNA interaction – biochemical, fluorescence polarization, dose response (AID 1964);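 note: purified POS-1 fused to maltose binding protein made in E. coli; potency of compounds blocking POS-1 binding to fluorescent RNA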
# T7 sequence (G5EF15 whole entry): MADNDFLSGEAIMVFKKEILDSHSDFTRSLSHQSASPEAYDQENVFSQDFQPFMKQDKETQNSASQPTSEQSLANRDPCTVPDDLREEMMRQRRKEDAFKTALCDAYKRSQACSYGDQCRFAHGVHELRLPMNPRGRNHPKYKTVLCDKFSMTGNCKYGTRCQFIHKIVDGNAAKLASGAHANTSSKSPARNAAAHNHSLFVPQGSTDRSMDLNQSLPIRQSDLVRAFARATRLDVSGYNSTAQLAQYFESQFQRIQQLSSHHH
# [18] = biological target: T8, Zinc finger protein mex-5 (Caenorhabditis elegans, UniProt Q9XUB2); assay: potency of MEX-5 RNA-binding blockers – biochemical, C. elegans, fluorescence polarization, dose response (AID 1960)
# T8 sequence (Q9XUB2 whole entry): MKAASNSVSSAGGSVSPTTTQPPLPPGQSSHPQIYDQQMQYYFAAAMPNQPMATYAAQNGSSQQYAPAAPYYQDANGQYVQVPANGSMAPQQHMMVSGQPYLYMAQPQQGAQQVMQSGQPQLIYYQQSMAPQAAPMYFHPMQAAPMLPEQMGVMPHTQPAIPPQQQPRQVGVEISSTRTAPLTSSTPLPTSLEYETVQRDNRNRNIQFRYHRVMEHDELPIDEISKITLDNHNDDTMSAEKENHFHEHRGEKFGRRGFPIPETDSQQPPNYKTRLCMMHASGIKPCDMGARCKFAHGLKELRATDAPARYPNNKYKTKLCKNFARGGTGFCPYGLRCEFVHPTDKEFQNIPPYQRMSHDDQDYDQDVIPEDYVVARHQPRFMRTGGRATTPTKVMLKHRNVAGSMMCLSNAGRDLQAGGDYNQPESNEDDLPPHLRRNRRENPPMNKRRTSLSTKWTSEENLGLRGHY
structure (smiles),measurement,setting,value
O=C(c1ccco1)N1CCN(CCCCOc2ccc(F)cc2)CC1,EC50,[1],4.68 µM (active)
same,EC50,Mu-type opioid receptor,92.5 µM (inactive)
COc1ccc(C(=O)NNC(=S)NC(=O)c2ccc(Br)o2)cc1OC,IC50,Albumin,> 94.1 µM (inactive)
same,EC50,[2],0.79 µM (active)
same,EC50,Streptococcus,9.11 µM (active)
same,CC50,Vero,> 25 µM (active)
CC1(C)CC2CC(C)(CN2S(=O)(=O)c2ccc(C(=O)Nc3cccc(S(=O)(=O)N4CCOCC4)c3)cc2)C1 (stereo not given),IC50,Albumin,> 94.1 µM (inactive)
same,IC50,Galanin receptor type 3,0.805 µM (active)
same,EC50,cells [3],> 29.9 µM (inactive)
CCOC(=O)C1CCN(Cc2cccc(Oc3ccc(Cl)cc3)c2)CC1,EC50,[1],2.82 µM (active)
same,EC50,Mu-type opioid receptor,92.5 µM (inactive)
CCc1nc(SCC(=O)NNC(=O)c2ccc(C)cc2)c2ccccc2n1,IC50,cells [4],> 138 µM (inactive)
same,IC50,Major prion protein,1.36 µM (active)
O=C(C1CCC1)N1CCc2cc(S(=O)(=O)NCCN3CCN(c4ccccc4F)CC3)ccc21,EC50,[1],13.4 µM (inactive)
same,EC50,Mu-type opioid receptor,92.5 µM (inactive)
COc1ccc(CC(N)c2csc(NC(=O)Nc3ccccc3Oc3ccccc3)n2)cc1 (stereo not given),AC50,[5],1.72 µM (active)
same,AC50,[6],2.85 µM (active)
same,AC50,[7],1.17 µM (active)
same,AC50,[8],21.3 µM (active)
same,AC50,[9],2.16 µM (active)
CCC1(CC)Cc2ccccc2-c2nc(S)nc(O)c21,IC50,cells [4],> 138 µM (inactive)
same,IC50,Major prion protein,3.08 µM (active)
Cc1ccc(-n2[nH]c(C)c(/C=N/Nc3ccc([N+](=O)[O-])cc3[N+](=O)[O-])c2=O)cc1,IC50,Fatty acid synthase [10],13.6 µM (active)
same,IC50,[11],62.4 µM (inactive)
same,IC50,[12],6.1 µM (active)
same,EC50,[13],> 53 µM (inactive)
same,IC50,[14],6.07 µM (active)
same,IC50,[15],100 µM (inactive)
same,IC50,Fatty acid synthase [16],12.6 µM (active)
Cc1cc(C(=O)N/N=C/c2cc(Cl)cc([N+](=O)[O-])c2O)[nH]n1,IC50,Aminopeptidase N,52.3 µM (active)
same,IC50,Albumin,> 94.1 µM (inactive)
same,EC50,[17],> 300 µM (not active)
same,EC50,[18],> 300 µM (inconclusive)
O=C(O)c1cc(-c2cccs2)nc2ccc(Br)cc12,IC50,cells [4],> 138 µM (inactive)
same,IC50,Major prion protein,1.41 µM (active)
